Reference: US20260124146A1, “MODIFIED RELEASE TOLCAPONE FORMULATIONS” (Corino Therapeutics, Inc., priority 2022, published 2026)
Values after ≈ are worked out from the molar mass of the structure shown. Where two headings read alike, the source gives them in different places.

What was measured:
TTR = settings: cited from earlier work
[1] = safety evaluation in the Phase I study; format: in vivo, human; settings: single oral doses, healthy subjects
Source text: Treatment-emergent adverse events (TEAEs), serious adverse events (SAEs), vital signs, ECG measurements (triplicate), physical examination, standard laboratory evaluations.

[2] = solubility assessment of micronized tolcapone in buffers (HPLC assay and visual observation); format: physicochemical; settings: for solubility at 1 h / solubility at 2 h: buffer, thermodynamic from solid
Protocol: Two aliquots of each sample were taken at 1 and 2 hour time points. One aliquot was used for Assay and Related Substances analysis by reverse phase HPLC and the other aliquot was used to obtain microscopic images using 5.5× magnification, polarised and non-polarised light. In addition, representative photograph of each n=1 sample at 1 hour time point were taken for information. pH of each sample was measured at 2 hour time point.

solubility (in words) ([2]; acidic conditions): poorly soluble | solubility (in words) ([2]; at about pH 6.8): improved solubility | solubility at 1 h ([2]; pH 2, aqueous buffer, pH 2.0, 1 Hour, replicates N=1, N=2, read-out: Assay (solubility by HPLC)): 23 µg/mL (≈ 84.2 µM) | solubility at 1 h ([2]; pH 2, aqueous buffer, pH 2.0, 1 Hour, read-out: Mean Assay (solubility by HPLC)): 20 µg/mL (≈ 73.2 µM) | solubility at 2 h ([2]; pH 2, aqueous buffer, pH 2.0, 2 Hour, replicates N=1, N=2, read-out: Assay (solubility by HPLC)): 20 µg/mL (≈ 73.2 µM) | solubility at 2 h ([2]; pH 2, aqueous buffer, pH 2.0, 2 Hour, read-out: Mean Assay (solubility by HPLC)): 21 µg/mL (≈ 76.9 µM) | solubility at 1 h ([2]; pH 4.5, aqueous buffer, pH 4.5, 1 Hour, replicates N=1, N=2, read-out: Assay (solubility by HPLC)): 45 µg/mL (≈ 165 µM) | solubility at 1 h ([2]; pH 4.5, aqueous buffer, pH 4.5, 1 Hour, read-out: Mean Assay (solubility by HPLC)): 45 µg/mL (≈ 165 µM) | solubility at 2 h ([2]; pH 4.5, aqueous buffer, pH 4.5, 2 Hour, replicates N=1, N=2, read-out: Assay (solubility by HPLC)): 52 µg/mL (≈ 190 µM) | solubility at 2 h ([2]; pH 4.5, aqueous buffer, pH 4.5, 2 Hour, read-out: Mean Assay (solubility by HPLC)): 51 µg/mL (≈ 187 µM) | solubility at 1 h ([2]; pH 5.5, aqueous buffer, pH 5.5, 1 Hour, replicates N=1, N=2, read-out: Assay (solubility by HPLC)): 258 µg/mL (≈ 944 µM) | solubility at 1 h ([2]; pH 5.5, aqueous buffer, pH 5.5, 1 Hour, read-out: Mean Assay (solubility by HPLC)): 248 µg/mL (≈ 908 µM) | solubility at 2 h ([2]; pH 5.5, aqueous buffer, pH 5.5, 2 Hour, replicates N=1, N=2, read-out: Assay (solubility by HPLC)): 283 µg/mL (≈ 1040 µM) | solubility at 2 h ([2]; pH 5.5, aqueous buffer, pH 5.5, 2 Hour, read-out: Mean Assay (solubility by HPLC)): 275 µg/mL (≈ 1010 µM) | solubility at 1 h ([2]; pH 6.8, aqueous buffer, pH 6.8, 1 Hour, replicates N=1, N=2, read-out: Assay (solubility by HPLC)): 920 µg/mL (≈ 3370 µM) | solubility at 1 h ([2]; pH 6.8, aqueous buffer, pH 6.8, 1 Hour, read-out: Mean Assay (solubility by HPLC)): 1280 µg/mL (≈ 4690 µM) | solubility at 2 h ([2]; pH 6.8, aqueous buffer, pH 6.8, 2 Hour, replicates N=1, N=2, read-out: Assay (solubility by HPLC)): 905 µg/mL (≈ 3310 µM) | solubility at 2 h ([2]; pH 6.8, aqueous buffer, pH 6.8, 2 Hour, read-out: Mean Assay (solubility by HPLC)): 1030 µg/mL (≈ 3780 µM) | solubility at 1 h ([2]; pH 7.4, aqueous buffer, pH 7.4, 1 Hour, replicates N=1, N=2, read-out: Assay (solubility by HPLC)): 473 µg/mL (≈ 1730 µM) | solubility at 1 h ([2]; pH 7.4, aqueous buffer, pH 7.4, 1 Hour, read-out: Mean Assay (solubility by HPLC)): 463 µg/mL (≈ 1690 µM) | solubility at 2 h ([2]; pH 7.4, aqueous buffer, pH 7.4, 2 Hour, replicates N=1, N=2, read-out: Assay (solubility by HPLC)): 489 µg/mL (≈ 1790 µM) | solubility at 2 h ([2]; pH 7.4, aqueous buffer, pH 7.4, 2 Hour, read-out: Mean Assay (solubility by HPLC)): 501 µg/mL (≈ 1830 µM) | Assay (solubility by HPLC) ([2]; pH 2.0, 1 Hour, replicates N=1, N=2): 18 µg/mL | Assay (solubility by HPLC) ([2]; pH 2.0, 2 Hour, replicates N=1, N=2): 23 µg/mL | Assay (solubility by HPLC) ([2]; pH 4.5, 2 Hour, replicates N=1, N=2): 51 µg/mL | Assay (solubility by HPLC) ([2]; pH 5.5, 1 Hour, replicates N=1, N=2): 237 µg/mL | Assay (solubility by HPLC) ([2]; pH 5.5, 2 Hour, replicates N=1, N=2): 267 µg/mL | Assay (solubility by HPLC) ([2]; pH 6.8, 1 Hour, replicates N=1, N=2): 1644 µg/mL | Assay (solubility by HPLC) ([2]; pH 6.8, 2 Hour, replicates N=1, N=2): 1163 µg/mL | Assay (solubility by HPLC) ([2]; pH 7.4, 1 Hour, replicates N=1, N=2): 452 µg/mL | Assay (solubility by HPLC) ([2]; pH 7.4, 2 Hour, replicates N=1, N=2): 513 µg/mL
SMILES: Cc1ccc(C(=O)c2cc(O)c(O)c([N+](=O)[O-])c2)cc1 [tolcapone]
overall mean increase in plasma TTR tetramer concentration (TTR; 100 mg three times daily 14 days then 200 mg three times daily 14 days, oral, hATTR-leptomeningeal patients, plasma): 55% | mean decrease of monomeric TTR concentration in CSF (TTR; same regimen, CSF, measured under semi-denaturing conditions): 48% | safety and tolerability [1]: safe and well tolerated
